Data: US11339419B2, “Scavenger protein(s) for improved preservation of analyte detection sensor(s) and method(s) of use thereof” (Siemens Healthcare Diagnostics Inc., priority 2017, dated 2022)
Values joined by “and” are separate entries in the source; they are usually repeats but may differ in a detail not shown here. Identical values can stand only once.

Test system: sarcosine oxidase (Toyobo)
Assay: Toyobo Sarcosine Oxidase Enzyme Absorbance with BSA and MIT
Assay type: biochemical
Conditions: for Sarcosine Oxidase Enzyme Absorbance, MEAN of 7-11 / Sarcosine Oxidase Enzyme Absorbance, replicates 7-11 / Sarcosine Oxidase Enzyme Absorbance, MEAN of 1-5 / Sarcosine Oxidase Enzyme Absorbance, solutions 1-5: 37° C.
[1] = Day 0, 5 mg/mL BSA only, no MIT (50 ppm MIT row)
[2] = Day 0, 5 mg/mL BSA only, no MIT (100 ppm MIT row)
[3] = Day 0, 25 mg/mL BSA only, no MIT (50 ppm MIT row)
[4] = Day 0, 25 mg/mL BSA only, no MIT (100 ppm MIT row)
[5] = Day 0, 50 mg/mL BSA only, no MIT (50 ppm MIT row)
[6] = Day 0, 50 mg/mL BSA only, no MIT (100 ppm MIT row)
[7] = Day 0, 50 ppm MIT, 25 mg/mL BSA
[8] = Day 0, 50 ppm MIT, 50 mg/mL BSA
[9] = Day 4, 5 mg/mL BSA only, no MIT (50 ppm MIT row)
[10] = Day 4, 5 mg/mL BSA only, no MIT (100 ppm MIT row)
[11] = Day 4, 25 mg/mL BSA only, no MIT (50 ppm MIT row)
[12] = Day 4, 25 mg/mL BSA only, no MIT (100 ppm MIT row)
[13] = Day 4, 50 mg/mL BSA only, no MIT (50 ppm MIT row)
[14] = Day 4, 50 mg/mL BSA only, no MIT (100 ppm MIT row)
[15] = Day 14, 5 mg/mL BSA only, no MIT (50 ppm MIT row)
[16] = Day 14, 5 mg/mL BSA only, no MIT (100 ppm MIT row)
[17] = Day 14, 25 mg/mL BSA only, no MIT (50 ppm MIT row)
[18] = Day 14, 25 mg/mL BSA only, no MIT (100 ppm MIT row)
[19] = Day 14, 50 mg/mL BSA only, no MIT (50 ppm MIT row)
[20] = Day 14, 50 mg/mL BSA only, no MIT (100 ppm MIT row)

Procedure: Tables 1-4 depict aqueous solutions comprising varying concentrations of BSA (at concentrations of 0 mg/mL, 5 mg/mL, 25 mg/mL, and 50 mg/mL), varying concentrations of MIT (at concentrations of 50 parts per million and 100 parts per million) or Proclin™ 300 (at concentrations of 0.7% and 1.4%) biocides over a particular time period (measurements were taken at days 0, 4, and 14 after exposure of the enzyme(s) to the aqueous solutions) and the associated enzyme absorbance measurements for sarcosine oxidase (commercially offered for sale by BBI Solutions and Toyobo). Absorbance measurements of the sarcosine oxidase enzyme(s) were taken via spectrophotometer for each aqueous solution (represented as columns 1-5 in Tables 1-4—column 6 is a blank), the absorbance being directly proportional to the enzyme activity being measured-which for Tables 1-4 is sarcosine oxidase enzyme activity. Accordingly, the higher the absorbance measurement, the higher the enzyme activity of sarcosine oxidase. Columns 7-11 represent five replicate readings in which the aqueous solution only contains BSA (i.e., there is no biocide(s) present in the aqueous solution). In addition, the mean values, standard deviations, and coefficients of variation are also presented for the enzyme activity/absorbance of each aqueous solution. All measurements were taken at 37° C.
As depicted below in Table 2, sarcosine oxidase (commercially offered for sale by Toyobo) enzyme activity is measured against various concentrations of MIT (biocide) and BSA (scavenger protein) over a period of 14 days (with absorbance measurements taken at 0, 4, and 14 days) for five different aqueous solutions (represented as columns 1-5-column 6 is a blank).

- Sarcosine Oxidase Enzyme Absorbance, MEAN of 7-11 [1]: 1.41
- Sarcosine Oxidase Enzyme Absorbance, MEAN of 7-11 [2]: 1.39
- Sarcosine Oxidase Enzyme Absorbance, MEAN of 7-11 [3]: 1.40
- Sarcosine Oxidase Enzyme Absorbance, MEAN of 7-11 [4]: 1.38
- Sarcosine Oxidase Enzyme Absorbance, MEAN of 7-11 [5]: 1.35
- Sarcosine Oxidase Enzyme Absorbance, MEAN of 7-11 [6]: 1.38
- % Bias (Day 0, 50 ppm MIT vs no MIT, 5 mg/mL BSA): −0.3%
- % Bias (Day 0, 50 ppm MIT vs no MIT, 25 mg/mL BSA): −1.0%
- % Bias (Day 0, 50 ppm MIT vs no MIT, 50 mg/mL BSA): 2.4%
- Sarcosine Oxidase Enzyme Absorbance, MEAN of 1-5 (Day 0, 50 ppm MIT, 5 mg/mL BSA): 1.41
- Sarcosine Oxidase Enzyme Absorbance, MEAN of 1-5 [7]: 1.39
- Sarcosine Oxidase Enzyme Absorbance, MEAN of 1-5 [8]: 1.39
- Sarcosine Oxidase Enzyme Absorbance, solutions 1-5 [8]: 1.439 and 1.435 and 1.441
- % Bias (Day 0, 100 ppm MIT vs no MIT, 5 mg/mL BSA): 0.3%
- % Bias (Day 0, 100 ppm MIT vs no MIT, 25 mg/mL BSA): −0.7%
- % Bias (Day 0, 100 ppm MIT vs no MIT, 50 mg/mL BSA): −1.1%
- Sarcosine Oxidase Enzyme Absorbance, MEAN of 1-5 (Day 0, 100 ppm MIT, 5 mg/mL BSA): 1.39
- Sarcosine Oxidase Enzyme Absorbance, MEAN of 1-5 (Day 0, 100 ppm MIT, 25 mg/mL BSA): 1.37
- Sarcosine Oxidase Enzyme Absorbance, MEAN of 1-5 (Day 0, 100 ppm MIT, 50 mg/mL BSA): 1.37
- Sarcosine Oxidase Enzyme Absorbance, MEAN of 7-11 [9]: 0.10
- Sarcosine Oxidase Enzyme Absorbance, MEAN of 7-11 [10]: 0.79
- Sarcosine Oxidase Enzyme Absorbance, replicates 7-11 [10]: 0.933 and 0.941 and 0.967 and 0.963
- Sarcosine Oxidase Enzyme Absorbance, MEAN of 7-11 [11]: 1.22
- Sarcosine Oxidase Enzyme Absorbance, MEAN of 7-11 [12]: 1.23
- Sarcosine Oxidase Enzyme Absorbance, MEAN of 7-11 [13]: 1.24
- Sarcosine Oxidase Enzyme Absorbance, MEAN of 7-11 [14]: 1.24
- % Bias (Day 4, 50 ppm MIT vs no MIT, 5 mg/mL BSA): 775.9%
- % Bias (Day 4, 50 ppm MIT vs no MIT, 25 mg/mL BSA): 11.9%
- % Bias (Day 4, 50 ppm MIT vs no MIT, 50 mg/mL BSA): 12.4%
- Sarcosine Oxidase Enzyme Absorbance, MEAN of 1-5 (Day 4, 50 ppm MIT, 5 mg/mL BSA): 0.86
- Sarcosine Oxidase Enzyme Absorbance, MEAN of 1-5 (Day 4, 50 ppm MIT, 25 mg/mL BSA): 1.37
- Sarcosine Oxidase Enzyme Absorbance, MEAN of 1-5 (Day 4, 50 ppm MIT, 50 mg/mL BSA): 1.40
- % Bias (Day 4, 100 ppm MIT vs no MIT, 5 mg/mL BSA): 16.5%
- % Bias (Day 4, 100 ppm MIT vs no MIT, 25 mg/mL BSA): 10.4%
- % Bias (Day 4, 100 ppm MIT vs no MIT, 50 mg/mL BSA): 11.1%
- Sarcosine Oxidase Enzyme Absorbance, MEAN of 1-5 (Day 4, 100 ppm MIT, 5 mg/mL BSA): 0.92
- Sarcosine Oxidase Enzyme Absorbance, MEAN of 1-5 (Day 4, 100 ppm MIT, 25 mg/mL BSA): 1.35
- Sarcosine Oxidase Enzyme Absorbance, MEAN of 1-5 (Day 4, 100 ppm MIT, 50 mg/mL BSA): 1.37
- Sarcosine Oxidase Enzyme Absorbance, MEAN of 7-11 [15]: 0.29
- Sarcosine Oxidase Enzyme Absorbance, MEAN of 7-11 [16]: 0.31
- Sarcosine Oxidase Enzyme Absorbance, MEAN of 7-11 [17]: 1.36
- Sarcosine Oxidase Enzyme Absorbance, MEAN of 7-11 [18]: 1.41
- Sarcosine Oxidase Enzyme Absorbance, MEAN of 7-11 [19]: 1.41
- Sarcosine Oxidase Enzyme Absorbance, MEAN of 7-11 [20]: 1.42
- % Bias (Day 14, 50 ppm MIT vs no MIT, 5 mg/mL BSA): 0.3%
- % Bias (Day 14, 50 ppm MIT vs no MIT, 25 mg/mL BSA): 1.6%
- % Bias (Day 14, 50 ppm MIT vs no MIT, 50 mg/mL BSA): 0.7%
- Sarcosine Oxidase Enzyme Absorbance, MEAN of 1-5 (Day 14, 50 ppm MIT, 5 mg/mL BSA): 0.29
- Sarcosine Oxidase Enzyme Absorbance, MEAN of 1-5 (Day 14, 50 ppm MIT, 25 mg/mL BSA): 1.39
- Sarcosine Oxidase Enzyme Absorbance, MEAN of 1-5 (Day 14, 50 ppm MIT, 50 mg/mL BSA): 1.42
- % Bias (Day 14, 100 ppm MIT vs no MIT, 5 mg/mL BSA): −0.8%
Substance: bovine serum albumin [BSA]
- Sarcosine Oxidase Enzyme Absorbance, replicates 7-11 [1]: 1.444 and 1.45 and 1.459 and 1.485 and 1.463
- Sarcosine Oxidase Enzyme Absorbance, replicates 7-11 [2]: 1.459 and 1.421 and 1.427 and 1.439 and 1.436
- Sarcosine Oxidase Enzyme Absorbance, replicates 7-11 [3]: 1.448 and 1.453 and 1.45 and 1.442 and 1.444
- Sarcosine Oxidase Enzyme Absorbance, replicates 7-11 [4]: 1.447 and 1.422 and 1.418 and 1.443 and 1.413
- Sarcosine Oxidase Enzyme Absorbance, replicates 7-11 [5]: 1.387 and 1.402 and 1.388 and 1.408 and 1.406
- Sarcosine Oxidase Enzyme Absorbance, replicates 7-11 [6]: 1.437 and 1.434 and 1.424 and 1.423 and 1.416
- Sarcosine Oxidase Enzyme Absorbance, solutions 1-5 (Day 0, 50 ppm MIT, 5 mg/mL BSA): 1.445 and 1.446 and 1.443 and 1.456 and 1.457
- Sarcosine Oxidase Enzyme Absorbance, solutions 1-5 [7]: 1.432 and 1.423 and 1.425 and 1.431 and 1.427
- Sarcosine Oxidase Enzyme Absorbance, replicates 7-11 [9]: 0.251 and 0.247 and 0.255 and 0.261 and 0.267
- Sarcosine Oxidase Enzyme Absorbance, replicates 7-11 [11]: 1.388 and 1.399 and 1.382 and 1.357 and 1.362
- Sarcosine Oxidase Enzyme Absorbance, replicates 7-11 [12]: 1.366 and 1.381 and 1.402 and 1.382 and 1.388
- Sarcosine Oxidase Enzyme Absorbance, replicates 7-11 [13]: 1.386 and 1.428 and 1.403 and 1.415 and 1.372
- Sarcosine Oxidase Enzyme Absorbance, replicates 7-11 [14]: 1.384 and 1.407 and 1.4 and 1.389 and 1.388
- Sarcosine Oxidase Enzyme Absorbance, replicates 7-11 [15]: 0.329 and 0.33 and 0.348 and 0.327 and 0.333
- Sarcosine Oxidase Enzyme Absorbance, replicates 7-11 [16]: 0.342 and 0.353 and 0.351 and 0.382 and 0.368
- Sarcosine Oxidase Enzyme Absorbance, replicates 7-11 [17]: 1.406 and 1.41 and 1.429 and 1.404 and 1.403
- Sarcosine Oxidase Enzyme Absorbance, replicates 7-11 [18]: 1.443 and 1.445 and 1.46 and 1.471 and 1.461
- Sarcosine Oxidase Enzyme Absorbance, replicates 7-11 [19]: 1.436 and 1.456 and 1.449 and 1.465 and 1.488
- Sarcosine Oxidase Enzyme Absorbance, replicates 7-11 [20]: 1.476 and 1.446 and 1.464 and 1.474 and 1.469
